{"source": "patent US20100216722A1", "about": "“USE OF THE PEPTIDE PRO-GLY-THR-CYS-GLU-ILE-CYS-ALA-TYR-ALA-ALA-CYS-THR-GLY-CYS AS A THERAPEUTIC AGENT” (priority 2007, published 2010)", "key": {"HepG2-2.2.15 cells": {"tested_on": "HepG2-2.2.15 cells", "experiment": "Cytotoxicity in HepG2-2.2.15 cells (dye uptake cell viability)", "settings": "HepG2-2.2.15 cells; peptide 10 micrograms per ml; dye uptake assay"}, "HIV-1IIIB": {"tested_on": "HIV-1IIIB", "experiment": "HIV-1 antiviral assay (CPE reduction, MTS) in CEM-SS cells", "format": "cell-based", "settings": "peptide 10 micrograms per ml, 6 days post-infection"}, "HCMV strain AD169": {"tested_on": "HCMV strain AD169", "experiment": "HCMV plaque reduction assay in MRC-5 cells", "settings": "HCMV AD169 in MRC-5 cells; peptide 10 micrograms per ml; 7-10 days"}, "MRC-5 cells": {"tested_on": "MRC-5 cells", "settings": "human, 6 days", "description": "(§2) For cytotxicity testing, MRC-5 cells were seeded at 2,500 cells/well in 96 well plates using growth medium. […] The following day, peptide was added and tested in duplicates. After a 6 days incubation period, cell viability was measured using CellTiter 96 Solution (Promega). Plates were incubated for additional 4 hours at 37° C. Adhesive plate sealers were used in place of lids, the sealed plates were inverted several times to mix the soluble formazan product and the plate was read spectrophotometrically at 490/560 nm with a Molecular Devices Vmax plate reader."}, "A549 cells [1]": {"tested_on": "A549 cells", "experiment": "Apoptosis induction assay (Annexin-5)", "format": "cell-based, human", "settings": "apoptosis in A549 cells, peptide 10 micrograms per ml, 24 hours", "from_the_text": "Human A549 cells (carcinomic human alveolar basal epithelial cells) were utilized in the experiments employing the Annexin-5 apoptosis assay. Annexin-5 is a member of a highly conserved protein family that binds acidic phospholipids in a calcium-dependent manner. […] Phosphatidylserine is translocated from the inner side of the plasma membrane to the outer layer when cells undergo death by apoptosis or cell necrosis and serves as a signal by which cell destined for death are recognized by phagocytes. Test peptide—10 micrograms per ml—were exposed for 24 hours to the A549 cells before they were analyzed for signs of apoptosis."}, "[2]": {"tested_on": "macrophages differentiated from human PBMC", "experiment": "TNF alpha production assay (LPS-stimulated macrophages, ELISA)", "format": "cell-based", "settings": "peptide 10 micrograms per ml, 30 min before lipopolysaccharide 200 ng/ml, overnight", "procedure": "Human Peripheral Blood Mononuclear Cells (PBMC) were obtained from normal human donors. The macrophages were prepared by adherence of PBMC to the plastic wells of the plates. After 8 days in culture in the presence of recombinant human macrophage-colony stimulating factor at 2 ng/ml, differentiated macrophages were preincubated with test peptide—10 micrograms per ml—for 30 min, followed by in-well stimulation by the addition of lipopolysaccharide at a final concentration of 200 ng/ml. Not stimulated macrophages served as negative background control. After overnight incubation, supernatants from the control and LPS-stimulated cultures were harvested and assayed for TNF alpha production employing a TNF alpha specific ELISA."}, "in vitro [3]": {"experiment": "in vitro", "settings": "human, CEM-SS cells"}, "[4]": {"tested_on": "hepatitis B virus (HBV) ayw strain", "experiment": "HBV replication assay in HepG2-2.2.15 cells (TaqMan PCR of secreted HBV DNA)", "format": "cell-based", "settings": "peptide 10 micrograms per ml, six days, HBV DNA in supernatant"}, "in vitro [5]": {"experiment": "in vitro", "settings": "human, MRC-5 cells (embryonal lung fibroblasts)", "description": "as §2"}, "A549 cells [6]": {"tested_on": "A549 cells", "experiment": "Propidium iodide cell cycle assay", "format": "cell-based, human", "settings": "peptide 10 micrograms per ml, 24 hours, Propidium iodide FACS", "procedure": "Human A549 cells (carcinomic human alveolar basal epithelial cells) were utilized in the experiments employing the Propidium iodide cell cycle assay. The eukaryotic cell cycle is a series of events that take place in a cell leading to its replication. Propidium iodide is an intercalating agent and a fluorescent molecule that can be used to stain DNA. Cells were incubated for 24 hours with test peptide—10 micrograms per ml—or left untreated. […] The cells were pipetted into 2.5 ml absolute EtOH (final concentration approx. 70%) and incubated on ice for 15 min. Thereafter, cells were pelleted at 1500 rpm for 5 min and resuspended in Propidium iodide solution in PBS. After incubation for 40 min at 37° C., cells were analyzed in the FACS."}, "[7]": {"tested_on": "Human Peripheral Blood Mononuclear Cells (PBMC)", "experiment": "T cell proliferation assay (PHA, 3H-thymidine)", "format": "cell-based", "settings": "peptide 10 micrograms per ml, 3H-thymidine incorporation", "procedure": "(§1) Human Peripheral Blood Mononuclear Cells (PBMC) were obtained from normal human donors. The T cell proliferation was induced by stimulation of the cells with the T cell mitogen phytohemagglutinin (PHA), either in the absence (positive proliferation control), or in the presence of test peptide—10 micrograms per ml—to examine their effects on the T cell proliferating response. 10^5/well PBMC were plated in 96-well microtiter plates and assayed in duplicate with the peptide. Cell cultures were incubated at 37° C. for 3 days in a 5% CO2 incubator and were thereafter pulsed with 1 microCi/well ^3H-thymidine for additional 12 hours of culture. At the end of incubation time, the plates were harvested and the cells counted by liquid scintillation for the incorporation of ^3H-thymidine as a measure of T cell proliferation."}, "A549 cells [8]": {"tested_on": "A549 cells", "experiment": "Apoptosis prevention assay (C2 ceramide, Annexin-5)", "format": "cell-based, human", "settings": "A549 cells pretreated 30 min with peptide 10 micrograms per ml, then C2 ceramide", "from_the_text": "Human A549 cells (carcinomic human alveolar basal epithelial cells) were utilized in the experiments employing the Annexin-5 apoptosis assay. Annexin-5 is a member of a highly conserved protein family that binds acidic phospholipids in a calcium-dependent manner. […] Phosphatidylserine is translocated from the inner side of the plasma membrane to the outer layer when cells undergo death by apoptosis or cell necrosis and serves as a signal by which cell destined for death are recognized by phagocytes. A549 cells were pretreated for 30 min with test peptide—10 micrograms per ml—followed by the exposure to C2 ceramide. Ceramide mediates cell apoptosis through the activation of the mitogen activating protein kinase (MAPK) and the stress activated kinase (JNK/SAPK). C2 ceramide is a synthetic, membrane soluble analog of ceramide."}, "[9]": {"tested_on": "Primary Human endothelial cells (HUVEC)", "experiment": "Endothelial cell migration assay", "format": "cell-based", "settings": "peptide 10 micrograms per ml, 22 hours", "procedure": "Endothelial cell migration is a prerequisite for the process of neo-vascularization or angiogenesis which is crucial for on-site recruitment of blood vessel formation. […] Thereafter, designated concentration of test peptide—10 micrograms per ml—was added in duplicate wells. The endothelia were allowed to migrate for 22 hours at 37° C., then, migrated cells were fixed and stained with Hoechst 33342 dye. Images of 3 fields per insert were taken and the number of migrated cells per field were quantified using the ImageProPlus software. Data were analyzed for the average number of the migrated cells and standard deviation of six data points for each treatment condition. Active test peptide against HUVEC migration was determined based on 50% inhibition of migrated cells as compared with the control. Statistic p values were computed using the Student's t-test."}, "RAW 264.7 cells": {"tested_on": "RAW 264.7 cells", "experiment": "Phagocytosis assay (Fluorescein-labeled Escherichia coli, flow cytometry)", "format": "cell-based, mouse", "settings": "peptide 10 micrograms per ml, 30 min before Fluorescein-labeled E. coli", "procedure": "Cells were incubated in 12×75 mm tubes at 37° C. with test peptide—10 micrograms per ml—for 30 min prior to adding Fluorescein-labeled Escherichia coli bacteria as the agent to be ingested. […] The samples were then analyzed by flow cytometry to determine the amount of phagocytosis as a function of brightness (the greater the phagocytic activity, the more fluorescence in the macrophage population). Data are reported as % positive and the mean fluorescence intensity (MFI) of positively stained cells."}, "HUVEC": {"tested_on": "HUVEC", "experiment": "Endothelial tube formation assay", "format": "cell-based, human", "settings": "peptide 10 micrograms per ml, 20 hours", "procedure": "The endothelial tube formation assay is based on the ability of endothelial cells to form three-dimensional capillary-like tubular structures when cultured on a gel of basement membrane extract. The endothelial tube formation assay represents a powerful model for studying inhibition and induction of angiogenesis. Pre-labeled HUVEC with Calcein AM were seeded in a 96-well culture plate coated with extracellular metrix (Chemicon international Cat. ECM625) and treated with test peptide—10 micrograms per ml—in full growth medium. Positive control wes vehicle only. The endothelial cells were allowed to form tubes foe 20 hours and were then examined under an inverted fluorescent microscope. Duplicate wells for each treatment were photographed and quantitatively analyzed for an average tubule length using image analysis software ImageProPlus. Raw data were expressed as average tubule lengths in pixels±standard deviation. Statistic p values were computed using the Student's t-test."}, "[10]": {"experiment": "Cytotoxicity in HepG2-2.2.15 cells (dye uptake cell viability)", "settings": "human"}, "[11]": {"tested_on": "spleen cells of Ovalbumin-immunized Balb/c mice", "experiment": "Th1/Th2 cytokine profiling assay (Ovalbumin-restimulated spleen cells, CBA kit)", "format": "cell-based, mouse", "settings": "peptide 10 micrograms per ml; Ovalbumin restimulation; 72 hours", "procedure": "The Balb/c mice (originated in 1923, it is a popular strain and is used in many different research disciplines. […] On day 50, spleens of the mice were harvested (3 weeks after last boost with Ovalbumin). Cells were cultured (2×10^5/well in triplicate) and incubated with culture medium or test peptide—10 micrograms per ml—for 30 min. Thereafter, additional Ovalbumin was added to the cells at 10 micrograms/ml for in vitro restimulation of the cells. 72 hours later, cell supernatants were harvested and assayed using the Becton Dickinson Mouse Th1/Th2 Cytokine CBA Kit. This kit can be used to measure Interleukin-2 (IL-2), Interleukin-4 (IL-4), Interleukin-5 (IL-5), Interferon-γ (IFN-γ), and Tumor Necrosis Factor-α (TNF-α) protein levels in a single sample. The kit performance has been optimized for analysis of physiologically relevant concentrations (pg/ml levels) of specific cytokine proteins in tissue culture supernatants and serum samples."}, "[12]": {"tested_on": "Human Peripheral Blood Mononuclear Cells (PBMC)", "experiment": "B cell proliferation assay (SAC plus Interleukin-2, 3H-thymidine)", "format": "cell-based", "settings": "peptide 10 micrograms per ml, 3H-thymidine incorporation", "procedure": "as §1, with “The B” for “The T”, “the B” for “the T”, “mitogen Staphylococcus aureus Cowans I (SAC) plus Interleukin-2,” for “mitogen phytohemagglutinin (PHA),”, “cell” for “cell proliferating”, “of B” for “of T”"}}, "note": "Positions of bridges follow the written chain, without caps; N, C: chain ends. Residues, ends and D or L forms follow the SMILES beside them.", "data": [{"smiles": "Nc1ccn([C@@H]2CS[C@H](CO)O2)c(=O)n1", "note": "[3TC, Lamivudine, reference compound]", "values": [{"measurement": "% Cell viability", "setting": "HepG2-2.2.15 cells", "value": 95.8, "unit": "%"}]}, {"smiles": "Cc1cn([C@H]2C[C@H](N=[N+]=[N-])[C@@H](CO)O2)c(=O)[nH]c1=O", "note": "[AZT, zidovudine]", "values": [{"measurement": "% CPE reduction in HIV-1 infected CEM-SS cells", "setting": "HIV-1IIIB", "value": 99, "unit": "%"}]}, {"smiles": "Nc1nc(O)c2ncn(COC(CO)CO)c2n1", "note": "[Ganciclovir, reference compound]", "values": [{"measurement": "% plaque reduction", "setting": "HCMV strain AD169", "value": 100, "unit": "%"}, {"measurement": "% Cell viability", "setting": "MRC-5 cells", "value": 100, "unit": "%"}]}, {"smiles": "CC[C@H](C)[C@@H]1NC(=O)[C@H](CCC(=O)O)NC(=O)[C@@H](NC(=O)[C@@H](NC(=O)CNC(=O)[C@@H]2CCCN2)[C@@H](C)O)CSSC[C@@H]2NC(=O)[C@H](C)NC(=O)[C@H](C)NC(=O)[C@H](Cc3ccc(O)cc3)NC(=O)[C@H](C)NC(=O)[C@H](CSSC[C@@H](C(=O)O)NC(=O)CNC(=O)[C@H]([C@@H](C)O)NC2=O)NC1=O", "note": "[Guanylin, Pro-Gly-Thr-Cys-Glu-Ile-Cys-Ala-Tyr-Ala-Ala-Cys-Thr-Gly-Cys-OH] (H-PGTCEICAYAACTGC-OH; disulfide 4-12, 7-15 (inferred); N-terminus assumed)", "values": [{"measurement": "% of induction", "setting": "A549 cells [1]", "value": 1.5, "unit": "%"}, {"measurement": "% of LPS induction", "setting": "[2]", "value": 96.6, "unit": "%"}, {"measurement": "viability at 10 micrograms per ml", "setting": "in vitro [3]", "value": 100, "unit": "%"}, {"measurement": "% inhibition of HBV replication in HEP G2 cells", "setting": "[4]", "value": 21.7, "unit": "%"}, {"measurement": "viability at 144 h", "setting": "in vitro [5]", "value": 100, "unit": "%"}, {"measurement": "Cell cycle analysis G0/G1", "setting": "A549 cells [6]", "value": 58.7}, {"measurement": "Cell cycle analysis G2/M", "setting": "A549 cells [6]", "value": 9.8}, {"measurement": "Cell cycle analysis S", "setting": "A549 cells [6]", "value": 31.5}, {"measurement": "% of PHA induced control", "setting": "[7]", "value": 93.7, "unit": "%"}, {"measurement": "% CPE reduction in HIV-1 infected CEM-SS cells", "setting": "HIV-1IIIB", "value": 13.2, "unit": "%"}, {"measurement": "% prevention of ceramide induced apoptosis", "setting": "A549 cells [8]", "value": 0.0, "unit": "%"}, {"measurement": "% inhibition of migration", "setting": "[9]", "value": 24.0, "unit": "%"}, {"measurement": "% of control phagocytosis", "setting": "RAW 264.7 cells", "value": 105.9, "unit": "%"}, {"measurement": "% inhibition of tube formation", "setting": "HUVEC", "value": 10.0, "unit": "%"}, {"measurement": "viability at 144 h, 10 micrograms per ml", "setting": "[10]", "value": 91.2, "unit": "%"}, {"measurement": "% plaque reduction", "setting": "HCMV strain AD169", "value": 0.0, "unit": "%"}, {"measurement": "IFNγ spleen cells; TH1 response (% of control)", "setting": "[11]", "value": "62.0 % of control"}, {"measurement": "IL-2 spleen cells (% of control)", "setting": "[11]", "value": "135.5 % of control"}, {"measurement": "IL-4 spleen cells; TH2 response (% of control)", "setting": "[11]", "value": "143.8 % of control"}, {"measurement": "IL-5 spleen cells; TH2 response (% of control)", "setting": "[11]", "value": "82.6 % of control"}, {"measurement": "TNF-a spleen cells; TH1 response (% of control)", "setting": "[11]", "value": "108.5 % of control"}, {"measurement": "% of SAC/IL2 induced control", "setting": "[12]", "value": 97.0, "unit": "%"}]}, {"smiles": "CC(C)(C)NC(=O)[C@@H]1CN(Cc2cccnc2)CCN1C[C@@H](O)C[C@@H](Cc1ccccc1)C(=O)N[C@H]1c2ccccc2C[C@H]1O", "note": "[Indinavir, indinavir]", "values": [{"measurement": "% CPE reduction in HIV-1 infected CEM-SS cells", "setting": "HIV-1IIIB", "value": 100, "unit": "%"}]}]}
